Test results as given in patent US20190374554A1, “USE OF OXYGENATED CHOLESTEROL SULFATES (OCS) TO TREAT INFLAMMATORY SKIN DISEASE AND SKIN LESIONS” (Virginia Commonwealth University, priority 2016, published 2019).

Assay: Infusion compatibility: 25HC3S diluted in 5% dextrose infusion bag and eluted through infusion sets (potency, osmolality, pH, appearance)
Format: physicochemical
Description: A physical and chemical compatibility study was conducted at a 30 mg, 48 mg and 300 mg 25HC3S dose in 5% dextrose and 0.9% sodium chloride infusion bags. Descriptions of the two kinds of infusion sets tested with 25HC3S product diluted in 5% dextrose and 0.9% sodium chloride are listed in Table 15. The tubing in catalog number 2H8480 infusion set was composed of polyvinylchloride (PVC), while the tubing in catalog number 2C8858 was polyethylene lined except for a short pump segment (approximately 12 inches) which was composed of PVC.
25HC3S for Injection and Vehicle for 25HC3S for Injection, that had been stored at 2-8° C. for approximately 16 months, were used for the compatibility study. After constitution, 30 mg (1.0 mL of constituted product), 48 mg (1.6 mL of constituted product) or 300 mg (10 mL of constituted product) were added to 100 mL infusion bags of 5% dextrose and 0.9% sodium chloride, mixed thoroughly, and stored for 24 hours at room temperature and at 2-8° C. […] Taking into consideration the overfill per infusion bag and the additional volume introduced by adding the constituted 25HC3S product to each bag, the expected concentrations of 25HC3S were 0.28 mg/mL, 0.44 mg/mL, and 2.56 mg/mL in the infusion bags. Two kinds of infusion sets were then attached to the drug containing infusion bags, and the entire contents were eluted through the infusion sets at approximately 50 mL/hour at room temperature. Samples were collected from the 25HC3S prepared infusion bags at T=0 and at 24 hours, and from the total eluent passed through the infusion sets, and tested for 25HC3S concentration using HPLC. Solution visual appearance, osmolality (using method USP<785>), and pH (using method USP<791>) were also measured on the collected samples.

[1] = 5% dextrose, approx. 0.28 mg/mL, bag 24 h at 25° C., Baxter 2C8858
[2] = 5% dextrose, approx. 0.28 mg/mL, bag 24 h at 25° C., Baxter 2H8480
[3] = 5% dextrose, approx. 0.44 mg/mL, bag 24 h at 2-8° C., Baxter 2C8858
[4] = 5% dextrose, approx. 0.44 mg/mL, bag 24 h at 2-8° C., Baxter 2H8480
[5] = 5% dextrose, approx. 0.44 mg/mL, bag 24 h at 25° C., Baxter 2C8858
[6] = 5% dextrose, approx. 0.44 mg/mL, bag 24 h at 25° C., Baxter 2H8480
[7] = 5% dextrose, approx. 2.56 mg/mL, bag 24 h at 2-8° C., Baxter 2C8858
[8] = 5% dextrose, approx. 2.56 mg/mL, bag 24 h at 2-8° C., Baxter 2H8480
[9] = 5% dextrose, approx. 2.56 mg/mL, bag 24 h at 25° C., Baxter 2C8858
[10] = 5% dextrose, approx. 2.56 mg/mL, bag 24 h at 25° C., Baxter 2H8480
[11] = dextrose drug containing solutions

C[C@H](CCCC(C)(C)O)[C@H]1CC[C@H]2[C@@H]3CC=C4C[C@@H](OS(=O)(=O)[O-])CC[C@]4(C)[C@H]3CC[C@]12C.[Na+] [Formulation 25HC3S, 5-cholesten-3, 25-diol, 3-sulfate]
After Storage in Infusion Bag and Collection from Infusion Set % Remaining Compared to T = 0 [1]: (100.0%)
After Storage in Infusion Bag and Collection from Infusion Set Concentration [1]: 0.277 mg/mL
After Storage in Infusion Bag and Collection from Infusion Set Osmolality [1]: 252 mmol/kg
After Storage in Infusion Bag and Collection from Infusion Set pH [1]: 7.04
After Storage in Infusion Bag and Collection from Infusion Set % Remaining Compared to T = 0 [2]: (100.0%)
After Storage in Infusion Bag and Collection from Infusion Set Concentration [2]: 0.276 mg/mL
After Storage in Infusion Bag and Collection from Infusion Set Osmolality [2]: 252 mmol/kg
After Storage in Infusion Bag and Collection from Infusion Set pH [2]: 6.99
After Storage in Infusion Bag and Collection from Infusion Set % Remaining Compared to T = 0 [3]: (100.2%)
After Storage in Infusion Bag and Collection from Infusion Set Concentration [3]: 0.440 mg/mL
After Storage in Infusion Bag and Collection from Infusion Set Osmolality [3]: 255 mmol/kg
After Storage in Infusion Bag and Collection from Infusion Set pH [3]: 6.93
After Storage in Infusion Bag and Collection from Infusion Set % Remaining Compared to T = 0 [4]: (100.2%)
After Storage in Infusion Bag and Collection from Infusion Set Concentration [4]: 0.440 mg/mL
After Storage in Infusion Bag and Collection from Infusion Set Osmolality [4]: 257 mmol/kg
After Storage in Infusion Bag and Collection from Infusion Set pH [4]: 6.91
After Storage in Infusion Bag and Collection from Infusion Set % Remaining Compared to T = 0 [5]: (100.0%)
After Storage in Infusion Bag and Collection from Infusion Set Concentration [5]: 0.442 mg/mL
After Storage in Infusion Bag and Collection from Infusion Set Osmolality [5]: 253 mmol/kg
After Storage in Infusion Bag and Collection from Infusion Set pH [5]: 6.90
After Storage in Infusion Bag and Collection from Infusion Set % Remaining Compared to T = 0 [6]: (100.2%)
After Storage in Infusion Bag and Collection from Infusion Set Concentration [6]: 0.448 mg/mL
After Storage in Infusion Bag and Collection from Infusion Set Osmolality [6]: 253 mmol/kg
After Storage in Infusion Bag and Collection from Infusion Set pH [6]: 6.91
After Storage in Infusion Bag and Collection from Infusion Set % Remaining Compared to T = 0 [7]: (100.4%)
After Storage in Infusion Bag and Collection from Infusion Set Concentration [7]: 2.535 mg/mL
After Storage in Infusion Bag and Collection from Infusion Set Osmolality [7]: 248 mmol/kg
After Storage in Infusion Bag and Collection from Infusion Set pH [7]: 6.10
After Storage in Infusion Bag and Collection from Infusion Set % Remaining Compared to T = 0 [8]: (100.4%)
After Storage in Infusion Bag and Collection from Infusion Set Concentration [8]: 2.540 mg/mL
After Storage in Infusion Bag and Collection from Infusion Set Osmolality [8]: 247 mmol/kg
After Storage in Infusion Bag and Collection from Infusion Set pH [8]: 5.99
After Storage in Infusion Bag and Collection from Infusion Set % Remaining Compared to T = 0 [9]: (101.4%)
After Storage in Infusion Bag and Collection from Infusion Set Concentration [9]: 2.545 mg/mL
After Storage in Infusion Bag and Collection from Infusion Set Osmolality [9]: 251 mmol/kg
After Storage in Infusion Bag and Collection from Infusion Set pH [9]: 6.00
After Storage in Infusion Bag and Collection from Infusion Set % Remaining Compared to T = 0 [10]: (99.2%)
After Storage in Infusion Bag and Collection from Infusion Set Concentration [10]: 2.480 mg/mL
After Storage in Infusion Bag and Collection from Infusion Set Osmolality [10]: 261 mmol/kg
After Storage in Infusion Bag and Collection from Infusion Set pH [10]: 6.01
deviation of 25HC3S concentrations from the initial T=0 time point (5% dextrose, after 24 hours at room temperature and at 2-8° C., and after elution through infusion sets): ≤ 1.4%
osmolality trend [11]: no consistent trends over time in the infusion bag or after elution through the infusion sets
pH trend [11]: no trends over time or after elution through the infusion sets
solution visual appearance (dextrose, all three concentrations, after 24 hours in bags and after elution): remained as clear and colorless solutions
